Experimental data from ChEMBL document CHEMBL1201862, “PubChem BioAssay data set” (2004).
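Each compound was tested at five concentrations against cells in 96-well plates for 48 hours. GI50 is the concentration that inhibits growth by half.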 The source made the active and inactive calls. No stated cut-off is given here; in the data, active = GI50 up to about 1.1 µM and inactive = higher.

Assays:
Assay in all cases: inhibition of tumour cell growth, NCI panel, 48 h
[1] = tested on: MOLT-4
[2] = tested on: CAKI-1
[3] = tested on: TK-10
[4] = tested on: CCRF-CEM
[5] = tested on: RPMI-8226
[6] = tested on: HT-29
[7] = tested on: NCI-H226
[8] = tested on: NCI-H522
[9] = tested on: DU-145
[10] = tested on: SK-MEL-2
[11] = tested on: NCI-H460
[12] = tested on: SF-295
[13] = tested on: SNB-75
[14] = tested on: HOP-62
[15] = tested on: U-251
[16] = tested on: MDA-N
[17] = tested on: 786-0
[18] = tested on: OVCAR-8
[19] = tested on: NCI/ADR-RES
[20] = tested on: OVCAR-5
[21] = tested on: HL-60
[22] = tested on: UACC-257
[23] = tested on: HCT-15
[24] = tested on: UACC-62
[25] = tested on: SK-MEL-28
[26] = tested on: Malme-3M
[27] = tested on: MCF7
[28] = tested on: OVCAR-4
[29] = tested on: NCI-H23
[30] = tested on: SNB-19
[31] = tested on: T47D
[32] = tested on: SF-268
[33] = tested on: SN12C
[34] = tested on: MDA-MB-231
[35] = tested on: RXF 393
[36] = tested on: K562
[37] = tested on: HCC 2998
[38] = tested on: SK-MEL-5
[39] = tested on: HCT-116
[40] = tested on: ACHN
[41] = tested on: A549
[42] = tested on: SR
[43] = tested on: KM12
[44] = tested on: HOP-92
[45] = tested on: MDA-MB-435
[46] = tested on: EKVX
[47] = tested on: UO-31
[48] = tested on: Hs-578T
[49] = tested on: COLO 205
[50] = tested on: PC-3
[51] = tested on: IGROV-1
[52] = tested on: SK-OV-3
[53] = tested on: M14
[54] = tested on: LOX IMVI
[55] = tested on: A498
[56] = tested on: SW-620
[57] = tested on: SF-539
[58] = tested on: OVCAR-3

Measured: GI50

COC(C[C@H]1CCCC[C@]1(O)/C(=C\CO[Si](C(C)C)(C(C)C)C(C)C)Sc1ccccc1)OC
21.8 µM: [23]
inactive: [1] 17.3 µM | [2] 32.4 µM | [3] > 100 µM | [4] 27 µM | [5] 15.5 µM | [6] 46.1 µM | [7] 23.2 µM | [8] 15.8 µM | [9] 40.1 µM | [10] 22.7 µM | [11] 60 µM | [12] 32.4 µM | [13] 18.1 µM | [14] 50 µM | [15] 22.1 µM | [16] 45.2 µM | [17] 39.4 µM | [18] 49.8 µM | [19] 87.3 µM | [20] 38.4 µM | [21] 38.2 µM | [22] 42.4 µM | [24] > 100 µM | [25] 50.6 µM | [26] 22.5 µM | [27] > 100 µM | [28] 39.2 µM | [29] 25.8 µM | [30] 26.7 µM | [31] 12.6 µM | [32] 28.3 µM | [33] 39.5 µM | [34] 18.9 µM | [35] 16.1 µM | [36] 31.3 µM | [37] 16.5 µM | [38] 30.3 µM | [39] 22.5 µM | [40] > 100 µM | [41] 28.6 µM | [42] 20.7 µM | [43] 41.3 µM | [44] 20.5 µM | [45] 33 µM | [46] 37.4 µM | [47] 42.2 µM | [48] 29.4 µM | [49] 20.9 µM | [50] 35.6 µM | [51] 52.7 µM | [52] > 100 µM | [53] 31.6 µM | [54] 18 µM | [55] > 100 µM

CC1=NN(c2cccc(Cl)c2)C2(SCC(=O)N2c2nc3ccccc3s2)/C1=C\c1ccc(Cl)cc1 (stereo unspecified)
13.9 µM: [23]
inactive: [1] 4.34 µM | [2] 18.3 µM | [3] 30.2 µM | [5] 15.6 µM | [6] 19.4 µM | [7] 23.8 µM | [8] 20.3 µM | [9] 18.4 µM | [10] 16.7 µM | [11] 15.8 µM | [12] 17 µM | [14] 18 µM | [15] 13.8 µM | [16] 25.7 µM | [17] 21.6 µM | [18] 18.9 µM | [19] 38.8 µM | [20] 20.2 µM | [21] 11.8 µM | [22] 21.6 µM | [25] 24.5 µM | [27] 22.2 µM | [28] 17.3 µM | [29] 18.4 µM | [56] 14.4 µM | [31] 24.8 µM | [57] 26.2 µM | [32] 17.9 µM | [34] 25.5 µM | [35] 20.4 µM | [36] 14.4 µM | [37] 14.5 µM | [38] 13.8 µM | [39] 16.3 µM | [58] 16.8 µM | [40] 19.2 µM | [42] 2.81 µM | [43] 15.4 µM | [44] 13.4 µM | [45] 19.9 µM | [46] 33.5 µM | [47] 15.1 µM | [48] 19.4 µM | [50] 15.7 µM | [51] 15 µM | [52] 21.5 µM | [53] 19.8 µM | [54] 20.8 µM | [55] 17.3 µM
active: [4] 0.272 µM
